From patent publication US20210403415A1, “COMPOUNDS AND METHODS TO ATTENUATE TUMOR PROGRESSION AND METASTASIS” (THE TRUSTEES OF INDIANA UNIVERSITY, priority 2018, published 2021)

Key:
TEAD4 [1] = biological target: T1, TEAD4 (Homo sapiens, UniProt Q15561); test: Covalent streptavidin pull down of myc-TEAD4 from HEK293 cell lysates; assay type: cell-based; parameters: expressed in transfected cells; host or cells: HEK293; settings: higher concentrations, with compound 9
Description: HEK293 cells transfected with the myc-TEAD4 construct were grown for 48 h and then treated with DMSO or with 25 μM of compound 2 for an additional 48 h. Cells were then harvested in lysis buffer (50 mM Tris-HCl, pH 7.3, 150 mM NaCl, 0.5 mM EDTA, 1% Triton X-100, PhosSTOP phosphatase inhibitor cocktail, and EDTA-free protease inhibitors cocktail). Cell lysates containing 2 mg of protein were incubated with the indicated compounds or DMSO for 24 h. Extracts were then incubated with Dynabeads M-280 Streptavidin (Sigma-Aldrich) for 2 h at 4° C. Dynabeads were then washed and bound proteins were denatured and eluted according to the manufacturer's instructions. Relative levels of myc-TEAD4 from each complex were measured by immunoblot analysis with the anti-c-Myc antibody (1:5,000, Sigma-Aldrich).
Target sequence in this assay (Q15561 whole entry): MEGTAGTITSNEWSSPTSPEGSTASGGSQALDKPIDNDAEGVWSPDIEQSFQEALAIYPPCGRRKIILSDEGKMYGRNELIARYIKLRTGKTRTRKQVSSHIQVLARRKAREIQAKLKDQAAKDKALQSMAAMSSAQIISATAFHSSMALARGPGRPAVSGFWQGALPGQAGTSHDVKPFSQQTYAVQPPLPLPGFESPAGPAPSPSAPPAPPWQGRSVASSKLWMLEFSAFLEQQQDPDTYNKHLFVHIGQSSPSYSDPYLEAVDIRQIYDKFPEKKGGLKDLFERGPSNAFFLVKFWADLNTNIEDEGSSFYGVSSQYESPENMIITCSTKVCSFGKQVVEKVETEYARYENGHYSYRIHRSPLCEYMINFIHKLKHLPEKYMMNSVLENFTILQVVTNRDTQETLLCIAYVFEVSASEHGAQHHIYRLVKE

TEAD4 [2] = biological target: T1, TEAD4; test: Whole protein ESI mass spectrometry, adduct formation; assay type: binding; parameters: TEAD4 (217-434), TEAD4 (217-434) Cys367Ser mutant and Yap1 (Full-length) were expressed as GST-fusion proteins; GST (N, cleaved yes); made in house; host or cells: E. coli BL-21 (DE3), pGEX-6P-1; settings: for covalent adduct formation with TEAD4: 10 μM TEAD4, 200 μM compound, 24 h at 4° C.
Description: The samples were centrifuged at 20,000×g for […] to remove precipitants before being injected into an empty column on an Agilent 1200 liquid chromatography system (Agilent, Santa Clara, Calif.), using 80% Buffer A (H2O, 5 mM NH4OAc) and 20% Buffer B (ACN, 5 mM NH4OAc), and the masses were detected on an Agilent 6520 Accurate Mass Q-TOF.
It was determined whether a covalent bond formed between inventive compounds and TEAD4. […] The covalent adduct formation by compound 2 was relatively fast (FIG. 3G), reaching nearly 100% adduct formation after 30 min incubation with TEAD4. Because the rate of inhibition developed over a longer timescale (FIG. 3C), compound 2 is proposed to induce a slow conformational change in TEAD4 that prevents its interaction with Yap1. To rule out the possibility that compound 2 induces slow aggregation of TEAD4, and not the proposed slow conformational change, GST-TEAD4 was incubated with DMSO compound 2 for 24 h at 4° C., followed by injection into an SEC column (FIG. 3H). […] A slight increase in dimer formation for the TEAD4 sample incubated with compound 2 occurred compared to the sample incubated with DMSO. […] Furthermore, it is highly unlikely that Cys-367 oxidation was responsible for the lack of 100% inhibition at longer times since it has been shown that covalent bond formation is rapid and complete within less than an hour.
Target sequence in this assay (Q15561 217-434): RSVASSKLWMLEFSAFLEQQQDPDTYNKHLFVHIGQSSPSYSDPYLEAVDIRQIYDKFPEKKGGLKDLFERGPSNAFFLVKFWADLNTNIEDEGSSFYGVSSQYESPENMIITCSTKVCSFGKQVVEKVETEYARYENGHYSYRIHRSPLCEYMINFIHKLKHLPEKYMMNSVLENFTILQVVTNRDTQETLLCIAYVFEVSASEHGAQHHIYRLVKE

[3] = test system: patient-derived GBM43 glioblastoma spheroids; test: GBM43 spheroid viability (Alamar blue); assay type: cell-based, human; settings: for cytotoxicity at 10 µM: Homo sapiens, GBM43 cell, read-out: inhibition of GBM43 cell viability; for effect on GBM43 cancer cell viability / growth: three-dimensional spheroids
Description: Early-passage GBM43 cells were cultured in ultralow adherence plates (Corning Inc.) at 1 to 2×10^3 cells/mL in DMEM supplemented with 1% […] (Invitrogen), 2% B27 (Invitrogen), 25 ng/mL epidermal growth factor (EGF, 25 ng/mL fibroblast growth factor (FGF) (R&D Systems, Inc.), […], 2 ng/mL platelet growth factor, and 100 ng/mL each of penicillin and streptomycin (Invitrogen Inc.). Individual cells were recovered from spheres by incubation with Accutase (Sigma-Aldrich) for 10-15 minutes. Cells (50-100/well) were then seeded in fresh sphere-forming media in 96-well plates. After 2-3 days, Neurospheres containing 6 to 8 cells were treated with compounds 1, 2, and 5.
HEK-293 were cultured in DMEM with glutamine (Cellgro, Manassas, Va.) supplemented with 10% FBS and 1% penicillin/streptomycin in a 5% CO2 atmosphere at 37° C. Tumors were expanded by passage in the flank of NOD/SCIDγnull mice. To generate GBM43 cell lines, tumors were harvested, disaggregated, and maintained in 2.5% FBS for 14 days on Matrigel-coated plates (BD Biosciences) to remove murine fibroblasts. In-vitro GBM43 cell lines were propagated in DMEM with 10% FBS for no more than 7 passages. Cell line identity was confirmed by DNA fingerprint analysis (IDEXX BioResearch) for species and baseline short-tandem repeat analysis testing. GBM43 spheroids were generated by plating early-passage cells at 2.5×10^4 cells per well in 96-well ultralow attachment plates (Corning Inc.) in DMEM/F12 (1:1; GIBCO) supplemented with 2% B27 supplement (GIBCO), 20 ng/mL epidermal growth factor (EGF), and 20 ng/mL fibroblast growth factor (FGF) (Peprotech) for 2 days. The spheroids were then treated with compounds 1, 2, and 5 and growth analyzed by Alamar blue staining.

[4] = biological target: Cav2.2 α·β protein-protein interaction (Homo sapiens, UniProt P54284); test: Fluorescence polarization, Cavβ3 with labeled α-subunit peptide; assay type: binding; settings: 24 h at 4° C.
From the text: The selectivity of the compounds was explored with two unrelated protein-protein interactions between (i) the urokinase receptor (uPAR) and its ligand urokinase (uPA); and (ii) the a subunit of the voltage-gated calcium channel Cav2.2 with its β subunit Cavβ3. […] Both proteins have cysteine residues capable of forming covalent adducts.
FIG. 4D illustrates BLI measurements of the binding of TEAD4 to captured Yap when biotin-labeled GST-Yap1 was captured onto streptavidin-conjugated biolayer interferometry sensors which were dipped into varying concentrations of TEAD4. (mean±s.d.; n=3). […] FIG. 4F illustrates measured fluorescence polarization when increasing concentration of HIS-TEAD2 was mixed with 16 nM FAM-Yap60-99 peptide (mean±s.d.; n=3). FIG. 4G illustrates measured fluorescence polarization when HIS-TEAD2 was incubated with increasing concentration of compounds for 24 h at 4° C. followed by addition of FAM-Yap60-99 (mean±s.d.; n=3). FIG. 4H illustrates measured fluorescence polarization when urokinase receptor (uPAR) was incubated with varying concentrations of compounds for 24 h at 4° C. followed by addition of a urokinase-derived fluorescently-labeled peptide AE147 (mean±s.d.; n=3). […]

Cav2.2 α·β protein-protein interaction, sequence (P54284 whole entry): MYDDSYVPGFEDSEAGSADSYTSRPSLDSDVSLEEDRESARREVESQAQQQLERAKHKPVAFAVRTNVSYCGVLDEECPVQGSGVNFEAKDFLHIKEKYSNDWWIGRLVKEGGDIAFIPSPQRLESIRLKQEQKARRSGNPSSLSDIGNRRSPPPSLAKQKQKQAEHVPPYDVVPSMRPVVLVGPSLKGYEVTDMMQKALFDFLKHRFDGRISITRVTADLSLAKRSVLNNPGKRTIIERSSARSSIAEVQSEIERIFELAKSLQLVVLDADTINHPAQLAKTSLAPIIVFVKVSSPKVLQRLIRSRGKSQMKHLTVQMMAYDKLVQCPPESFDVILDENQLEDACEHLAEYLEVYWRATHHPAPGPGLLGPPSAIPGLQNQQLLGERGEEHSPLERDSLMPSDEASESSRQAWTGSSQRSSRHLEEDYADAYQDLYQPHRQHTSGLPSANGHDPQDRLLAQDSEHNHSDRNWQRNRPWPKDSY

adduct formation with TEAD4 (TEAD4 [2]; after 30 min incubation) [%]	inhibition of Cav2.2 α·β interaction [4]	SMILES	competition with compound 9 for binding to TEAD4 (TEAD4 [1])	covalent adduct formation with TEAD4 (TEAD4 [2])	cytotoxicity at 10 µM [3] [%]	effect on GBM43 cancer cell viability / growth [3]
~100	no inhibition	O=C(CCl)c1ccccc1Nc1cccc(C(F)(F)F)c1 [Compound 2, 2-chloro-1-(2-((3-(trifluoromethyl)phenyl)amino)phenyl)ethanone]	compete with compound 9 for binding to TEAD4	a peak at 26229 was observed, corresponding to the TEAD4.compound 2 adduct	30	inhibited GBM43 cancer cell viability
–	–	O=C(CCl)c1ncccc1Nc1cccc(C(F)(F)F)c1 [Compound 5, 2-chloro-1-(3-((3-(trifluoromethyl)phenyl)amino)pyridin-2-yl)ethanone]	compete with compound 9 for binding to TEAD4	formed more than one covalent complex	30	inhibited GBM43 cancer cell viability
